Experimental data published in US4746736A, “Carbapenem antibiotics” (priority 1986, dated 1988).
In brackets after ≈: the same amount, converted by molar mass. Where two headings read alike, the source gives them in different places.

How the values were obtained:
Assay type in all cases: cell-based
[1] = tested on: S. aureus A-9537; assay: In vitro MIC by tube dilution, S. aureus A-9537; details: Staphylococcus aureus, read-out: MIC
[2] = tested on: E. cloacae A-9656; assay: In vitro MIC by tube dilution, E. cloacae A-9656; details: Enterobacter cloacae, A9656, E. cloacae A-9656; read-out: MIC
[3] = tested on: S. aureus A-9606 (Pen-res.); assay: In vitro MIC by tube dilution, S. aureus A-9606 (Pen-res.); details: Staphylococcus aureus, S. aureus A-9606 (Pen-res); read-out: MIC
[4] = tested on: P. aeruginosa A-9843A; assay: In vitro MIC by tube dilution, P. aeruginosa A-9843A; details: Pseudomonas aeruginosa, A9843A, P. aeruginosa A-9843a; read-out: MIC
[5] = tested on: S. pneumoniae A-9585; assay: In vitro MIC by tube dilution, S. pneumoniae A-9585; details: Streptococcus pneumoniae, A9585, S. pneumoniae A-9585; read-out: MIC
[6] = tested on: E. cloacae A-9659; assay: In vitro MIC by tube dilution, E. cloacae A-9659; details: Enterobacter cloacae, A9659, E. cloacae A-9659; read-out: MIC
[7] = tested on: S. marcescens A20019; assay: In vitro MIC by tube dilution, S. marcescens A20019; details: Serratia marcescens, read-out: MIC
[8] = tested on: K. pneumoniae A-9664; assay: In vitro MIC by tube dilution, K. pneumoniae A-9664; details: Klebsiella pneumoniae, A9664, read-out: MIC
[9] = tested on: E. coli A15119; assay: In vitro MIC by tube dilution, E. coli A15119; details: Escherichia coli, read-out: MIC
[10] = tested on: P. mirabilis A-9900; assay: In vitro MIC by tube dilution, P. mirabilis A-9900; details: Proteus mirabilis, A9900, P. mirabilis A-9900; read-out: MIC
[11] = tested on: E. coli A20341-1; assay: In vitro MIC by tube dilution, E. coli A20341-1; details: Escherichia coli, A203411, read-out: MIC
[12] = tested on: P. morganii A15153; assay: In vitro MIC by tube dilution, P. morganii (M. morganii) A15153; details: Morganella morganii, read-out: MIC
[13] = tested on: K. pneumoniae A20468; assay: In vitro MIC by tube dilution, K. pneumoniae A20468; details: Klebsiella pneumoniae, read-out: MIC
[14] = tested on: S. pyogenes A9604; assay: In vitro MIC by tube dilution, S. pyogenes A9604; details: Streptococcus pyogenes, A9604, S. pyogenes A-9604; read-out: MIC
[15] = tested on: P. rettgeri A22424; assay: In vitro MIC by tube dilution, P. rettgeri A22424; details: Providencia rettgeri, A22424, P. rettgeri A22424; read-out: MIC
[16] = tested on: S. faecalis A20688; assay: In vitro MIC by tube dilution, S. faecalis A20688; details: Enterococcus faecalis, A20688, S. faecalis A20688; read-out: MIC
[17] = tested on: P. aeruginosa A21213; assay: In vitro MIC by tube dilution, P. aeruginosa A21213; details: Pseudomonas aeruginosa, A21213, P. aeruginosa A21213; read-out: MIC
[18] = A9537, S. aureus A-9537 +50% serum
[19] = A9537, S. aureus A-9537, no serum

## C[C@@H](O)[C@H]1C(=O)N2C(C(=O)[O-])=C(SCc3ccc[n+](C)c3)C[C@H]12 [Example 3, 3-(N-Methylpyridine-3-yl-methanethio)-6α-[1-(R)-hydroxyethyl]-7-oxo-1-azabicyclo(3.2.0)hept-2-ene-2-carboxylate]
[1]; [18]
  MIC: 16 ng/mL (≈ 0.0478 µM)
[1]; [19]
  MIC: 16 ng/mL (≈ 0.0478 µM)
[2]
  MIC: 0.13 µg/mL (≈ 0.389 µM)
[3]
  MIC: 0.016 µg/mL (≈ 0.0478 µM)
[4]
  MIC: 2 µg/mL (≈ 5.98 µM)
[5]
  MIC: 2 ng/mL (≈ 0.00598 µM)
[6]
  MIC: 0.13 µg/mL (≈ 0.389 µM)
[7]
  MIC: 0.016 µg/mL (≈ 0.0478 µM)
[8]
  MIC: 0.06 µg/mL (≈ 0.179 µM)
[9]; E. coli A15119
  MIC: 0.03 µg/mL (≈ 0.0897 µM)
[10]
  MIC: 0.13 µg/mL (≈ 0.389 µM)
[11]
  MIC: 0.016 µg/mL (≈ 0.0478 µM)
[12]; A15153, M. morganii A15153
  MIC: 0.13 µg/mL (≈ 0.389 µM)
[13]; A20468, K. pneumoniae A20468
  MIC: 0.06 µg/mL (≈ 0.179 µM)
[14]
  MIC: 2 ng/mL (≈ 0.00598 µM)

## C[C@@H](O)[C@H]1C(=O)N2C(C(=O)[O-])=C(SCc3cccc[n+]3C)C[C@H]12 [Example 4, 3-(N-Methylpyridine-2-yl-methanethio)-6α-[1-(R)-hydroxyethyl]-7-oxo-1-azabicyclo(3.2.0)hept-2-ene-2-carboxylate]
[1]; [19]
  MIC: 8 ng/mL (≈ 0.0239 µM)
[3]
  MIC: 0.016 µg/mL (≈ 0.0478 µM)
[4]
  MIC: 2 µg/mL (≈ 5.98 µM)
[5]
  MIC: 2 ng/mL (≈ 0.00598 µM)
[9]; A15119, E. coli A15119
  MIC: 0.016 µg/mL (≈ 0.0478 µM)
[11]
  MIC: 0.016 µg/mL (≈ 0.0478 µM)
[12]; A15153, M. morganii A15153
  MIC: 0.016 µg/mL (≈ 0.0478 µM)

## Cc1scc(CSC2=C(C(=O)[O-])N3C(=O)[C@H]([C@@H](C)O)[C@H]3C2)[n+]1C [Example 8, 3-(2-Methyl-N-methylthiazole-4-yl-methanethio)-6α-[1-(R)-hydroxyethyl]-7-oxo-1-azabicyclo(3.2.0)hept-ene-2-carboxylate]
[1]; [18]
  MIC: 30 ng/mL (≈ 0.0846 µM)
[1]; [19]
  MIC: 8 ng/mL (≈ 0.0226 µM)
[2]
  MIC: 0.06 µg/mL (≈ 0.169 µM)
[3]
  MIC: 0.03 µg/mL (≈ 0.0846 µM)
[4]
  MIC: 1 µg/mL (≈ 2.82 µM)
[5]
  MIC: 2 ng/mL (≈ 0.00564 µM)
[6]
  MIC: 0.13 µg/mL (≈ 0.367 µM)
[7]
  MIC: 0.06 µg/mL (≈ 0.169 µM)
[8]
  MIC: 0.03 µg/mL (≈ 0.0846 µM)
[9]; A15119, E. coli A15119
  MIC: 0.016 µg/mL (≈ 0.0451 µM)
[10]
  MIC: 0.13 µg/mL (≈ 0.367 µM)
[11]
  MIC: 0.03 µg/mL (≈ 0.0846 µM)
[13]; A20468, K. pneumoniae A20468
  MIC: 0.13 µg/mL (≈ 0.367 µM)
[15]
  MIC: 0.13 µg/mL (≈ 0.367 µM)
[14]
  MIC: 2 ng/mL (≈ 0.00564 µM)

## C[C@@H](O)[C@H]1C(=O)N2C(C(=O)[O-])=C(SCc3n(C)cc[n+]3C)C[C@H]12 [Example 9, 3-(N,N'-Dimethylimidazole-2-yl-methanethio)-6α-[1-(R)-hydroxyethyl]-7-oxo-1-azabicyclo(3.2.0)hept-2-ene-2-carboxylate]
[1]; [19]
  MIC: 4 ng/mL (≈ 0.0119 µM)
[2]
  MIC: 0.03 µg/mL (≈ 0.0889 µM)
[16]
  MIC: 0.13 µg/mL (≈ 0.385 µM)
[4]
  MIC: 2 µg/mL (≈ 5.93 µM)
[6]
  MIC: 0.03 µg/mL (≈ 0.0889 µM)
[7]
  MIC: 0.016 µg/mL (≈ 0.0474 µM)
[17]
  MIC: 0.13 µg/mL (≈ 0.385 µM)
[8]
  MIC: 0.016 µg/mL (≈ 0.0474 µM)
[9]; E. coli A15119
  MIC: 0.008 µg/mL (≈ 0.0237 µM)
[10]
  MIC: 0.016 µg/mL (≈ 0.0474 µM)
[11]
  MIC: 0.004 µg/mL (≈ 0.0119 µM)
[12]; M. morganii A15153
  MIC: 0.03 µg/mL (≈ 0.0889 µM)
[13]; K. pneumoniae A20468
  MIC: 0.03 µg/mL (≈ 0.0889 µM)
[15]
  MIC: 0.06 µg/mL (≈ 0.178 µM)

## Cc1sc(CSC2=C(C(=O)[O-])N3C(=O)[C@H]([C@@H](C)O)[C@H]3C2)c(C)[n+]1C [Example 10, 3-(2,3,4,-Trimethylthiazole-5-yl-methanethio)-6α[1-(R)-hydroxyethyl]-7-oxo-1-azabicyclo(3.2.0)hept-2-ene-2-carboxylate]
[1]; [19]
  MIC: 8 ng/mL (≈ 0.0217 µM)
[2]
  MIC: 0.13 µg/mL (≈ 0.353 µM)
[3]
  MIC: 0.008 µg/mL (≈ 0.0217 µM)
[4]
  MIC: 32 µg/mL (≈ 86.8 µM)
[6]
  MIC: 0.13 µg/mL (≈ 0.353 µM)
[9]; A15119, E. coli A15119
  MIC: 0.016 µg/mL (≈ 0.0434 µM)
[10]
  MIC: 0.13 µg/mL (≈ 0.353 µM)
[11]
  MIC: 0.008 µg/mL (≈ 0.0217 µM)
[13]; A20468, K. pneumoniae A20468
  MIC: 0.13 µg/mL (≈ 0.353 µM)
[15]
  MIC: 0.13 µg/mL (≈ 0.353 µM)

## C[C@@H](O)[C@H]1C(=O)N2C(C(=O)[O-])=C(SCc3scc[n+]3C)C[C@H]12 [Example 11, 3-[2-(N-Methylthiazolium)methylthio]-6α-[1-(R)-hydroxyethyl]-7-oxo-1-azabicyclo(3.2.0)hept-2-ene-2-carboxylate]
[1]; [18]
  MIC: 16 ng/mL (≈ 0.047 µM)
[1]; [19]
  MIC: 4 ng/mL (≈ 0.0117 µM)
[2]
  MIC: 0.13 µg/mL (≈ 0.382 µM)
[3]
  MIC: 0.016 µg/mL (≈ 0.047 µM)
[5]
  MIC: 2 ng/mL (≈ 0.00587 µM)
[6]
  MIC: 0.06 µg/mL (≈ 0.176 µM)
[7]
  MIC: 0.06 µg/mL (≈ 0.176 µM)
[17]
  MIC: 0.13 µg/mL (≈ 0.382 µM)
[8]
  MIC: 0.03 µg/mL (≈ 0.0881 µM)
[9]; A15119, E. coli A15119
  MIC: 0.016 µg/mL (≈ 0.047 µM)
[10]
  MIC: 0.03 µg/mL (≈ 0.0881 µM)
[11]
  MIC: 0.03 µg/mL (≈ 0.0881 µM)
[12]; A15153, M. morganii A15153
  MIC: 0.06 µg/mL (≈ 0.176 µM)
[13]; A20468, K. pneumoniae A20468
  MIC: 0.13 µg/mL (≈ 0.382 µM)
[15]
  MIC: 0.13 µg/mL (≈ 0.382 µM)
[14]
  MIC: 2 ng/mL (≈ 0.00587 µM)
